Test results taken from article PMC4366281 (Nature chemical biology, 2015).

Target: T1, MtbVKOR (Mycobacterium tuberculosis, UniProt I6X5W1)
T1 sequence (I6X5W1 1-210): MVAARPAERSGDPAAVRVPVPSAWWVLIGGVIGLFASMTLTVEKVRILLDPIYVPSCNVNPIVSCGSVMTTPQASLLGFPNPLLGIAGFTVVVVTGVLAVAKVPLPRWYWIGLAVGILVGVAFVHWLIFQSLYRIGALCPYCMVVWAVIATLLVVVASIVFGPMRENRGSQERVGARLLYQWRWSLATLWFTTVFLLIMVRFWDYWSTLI
Assay: HTS agar 384-well X-Gal assay, MtbVKOR-complemented E. coli dsbB null strain
Format: cell-based
Conditions: agar assay / re-test

O=C1c2ccccc2C(=O)C1c1ccc(Br)cc1 [brominedione]
inhibition of MtbVKOR-dependent E. coli strain: specific hit
